# Measured values taken from patent US9822117B2, “Pyridoindolobenz[b,d]azepine derivatives and uses thereof” (Daya Drug Discoveries, Inc., priority 2013, dated 2017).
# How the values were obtained:
# [1] = tested on: mechano-allodynia (paw withdrawal threshold); assay: Sciatic nerve chronic constriction injury (CCI) model of neuropathic pain; format: in vivo, mice
# Procedure: DDD-028 was evaluated in chronic constriction injury (CCI) model of neuropathic pain in mice as described by Bennett et al., which is incorporated herein in its entirety. Two male CDI mice (weighing 25-30 g at the time of surgery) were used in this study. The hydrochloride salt of DDD-028 was dissolved in distilled water at 0.15 mg/mL and was administered to the mice to the final dose of 1.0 mg/kg (3.5 gmol/kg) for oral administration (via gavage) or 0.3 mg/kg (1.2 gmol/kg) for intrathecal administration (injection) at peak mechano-allodynia. Baseline PWT measurements (pre-surgery) of the left-hind paw of each animal were taken prior to sciatic nerve ligation. The mice were then anesthetized with 3% isoflurane/100% O2 inhalation, and maintained on 2% isoflurane/100% O2 for the duration of surgery. The left thigh was shaved, scrubbed with Nolvasan, and a small incision (1-1.5 cm in length) was made in the middle of the lateral aspect of the left thigh to expose the sciatic nerve. The nerve was loosely ligated around the entire circumference of the nerve at three distinct sites (spaced 1 mm apart) using silk sutures. The surgical site was closed with a single muscle suture and a skin clip. Peak mechano-allodynia generally develops 7 […]. After 7 days post-surgery, Paw Withdrawal Threshold (PWT, g) measurements were taken for each animal to determine the extent of mechanical allodynia. PWT's were measured at 15 min, 30 min, 60 min, 120 min, and 180 min following administration of the drugs or vehicle. […] DDD-028 had no effect on PWT in contralateral paws.
# [2] = tested on: mechanical allodynia (paw withdrawal threshold); assay: Spinal nerve ligation (SNL) model of neuropathic pain; format: in vivo, rats
# Procedure: DDD-028 was evaluated in spinal nerve ligation (SNL) model of neuropathic pain in rats as described by Kim et al., which is incorporated herein in its entirety. DDD-028 was prepared as a suspension (1.0 mg/mL) in 5% PEG/5% Tween-80/90% saline; and pregabalin (reference compound, positive control) was prepared as a solution in normal saline (7.9 mg/mL). Both compounds were administered to the animals via oral gavage to a final dose of 5.0 mg/kg (17.4 gmol/kg) for DDD-028; and 39.0 mg/kg (250.2 gmol/kg) for pregabalin. Control animals received the vehicle (5% PEG/5% Tween-80/90% saline). Mechanical allodynia was measured by the up and down method using calibrated von Frey filaments (Linton Instruments). Eighteen male CD rats were used in this study. The animals were divided into three groups (vehicle, DDD-028, and pregabalin) containing 6 animals in each group. Baseline PWT measurements (pre-surgery) of the left-hind paw of each animal in the group were taken prior to spinal nerve ligation. Thereafter, the rats were anesthetized using 1-3% isofluorane, and the L5 spinal nerve was isolated and ligated tightly using silk thread. Peak mechano-allodynia generally develops by day 7 following surgery. After 7 days post-surgery, PWT measurements were taken for each animal to determine the extent of mechanical allodynia. Animals were then weighed, allocated to the treatment group, and administered the test compound, DDD-028, the reference compound, pregabalin, or the vehicle. PWT's were measured at 15 min, 30 min, 60 min, 120 min, and 180 min following administration of the drugs or vehicle.
# [3] = tested on: mechanical allodynia (percent weight distribution of left hind paw); assay: Complete Freund's Adjuvant (CFA)-induced model of inflammatory pain; format: in vivo; settings: rats
# Procedure: DDD-028 was evaluated in Complete Freund's Adjuvant (CFA)-induced model of inflammatory pain in rats as described by Stein et al., which is incorporated herein in its entirety. Fifteen male CD rats were used in this study. The animals were divided into three groups (vehicle, DDD-028, and indomethacin) containing 5 animals in each group. Baseline weight distribution of each animal in the groups was measured taken prior to CFA administration. Three readings were taken for each paw in each animal. Each reading was take over 3 seconds. Animals were lifted or the paws adjusted between each reading to ensure that animals were positioned correctly on the force pads. The percent weight bearing was calculated on the left leg for each reading. The mean of the three readings were then calculated for each animal. Following baseline measurements, the rats were anesthetized using 1-3% isofluorane, and were given subplantar injection of 0.1 mL of CFA into the left hind paw. Percent weight distributions of the left hind paws of each animal in the three groups were measured at 24 hours post-administration to determine the extent of mechanical allodynia. Animals were then weighed, allocated to the treatment group, and administered the test compound, DDD-028, the reference compound, indomethacin, or the vehicle. Weight distributions were measured at 15 min, 30 min, 60 min, and 120 min following administration of the drugs or vehicle.
# [4] = target: Sigma σ2 receptor (Homo sapiens, UniProt Q5BJF2); assay: Receptor binding, σ2
# Sigma σ2 receptor, sequence (Q5BJF2 whole entry): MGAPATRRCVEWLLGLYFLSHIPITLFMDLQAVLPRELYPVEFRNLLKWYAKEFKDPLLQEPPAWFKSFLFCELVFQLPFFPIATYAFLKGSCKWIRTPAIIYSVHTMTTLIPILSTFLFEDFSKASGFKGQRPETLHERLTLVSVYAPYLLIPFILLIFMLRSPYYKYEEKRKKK
compound,measurement,setting,value
CN1CCc2c(c3cccc4c3n2CCc2ccccc2-4)C1 [Compound 13],effect on PWT in contralateral paws,"[1]; mice, CCI, 1.0 mg/kg oral or 0.3 mg/kg intrathecal",no effect
same,time of maximal effect on mechano-allodynia,"[1]; mice, CCI, hydrochloride salt, 1.0 mg/kg oral or 0.3 mg/kg intrathecal",≤ 30 min
same,adverse effects,"[2]; rat, in vivo, po, 5 mg/kg",No adverse effects were evident
same,time of maximal anti-nociceptive effect,"[2]; rats, SNL, 5.0 mg/kg oral",about 60 minutes
same,potency relative to pregabalin,"[2]; rats, SNL, DDD-028 5.0 mg/kg vs pregabalin […], oral",about 5 fold
same,adverse effects,[3]; oral,No adverse effects were evident
same,potency relative to indomethacin,[3]; oral,about 5 fold
same,time of maximal anti-nociceptive effect,[3]; oral,about 60 minutes
same,Ki,[4],312 nM
"CC(C)C[C@H](CN)CC(=O)O [pregabalin, reference compound]",adverse effects,"[1]; as printed in Example 5 (CCI), 1-3 hours post-administration",mild sedation
"COc1ccc2c(c1)c(CC(=O)O)c(C)n2C(=O)c1ccc(Cl)cc1 [indomethacin, reference compound]",adverse effects,[3]; 2 hours post-administration,mild sedation
